Experimental data reported in patent publication US20240360154A1, “AROYL SUBSTITUTED TRICYCLIC COMPOUND, PREPARATION METHOD THEREFOR AND USE THEREOF” (GENFLEET THERAPEUTICS (SHANGHAI) INC., priority 2020, published 2024).

Experiments:
[1] = target: BTK (Homo sapiens (Human), UniProt Q06187); experiment: BTK enzyme experiment (ADP-Glo kinase assay); format: biochemical; settings: 10 nM BTK, ATP 125 μM, Poly(Glu4, Tyr1), 90 minutes at 20° C.; read-out: BTK(WT) IC50
Description: (§1) A 3-fold gradient concentration stock solution of 1000× compound was prepared using DMSO and diluted 100-fold to 10× compound stock solution using reaction buffer (50 mM HEPES, pH 7.5, 0.0015% Briji-35, 2 mM DTT, 10 mM MgCl2), and the 10× compound stock solution was transferred to a 384-well plate. Enzyme reactions were set up with BTK Kinase Enzyme System (Promega Catalog #V2941) or BTK (C481S) Kinase Enzyme System (Promega Catalog #VA7033). First, a 2× enzyme solution containing 10 nM BTK or 10 nM BTK C481S was prepared with reaction buffer and added to the plate, and incubated with the compound for 10 minutes. […] Finally, the kinase activity was detected according to the experimental steps provided by ADP-Glo™ kinase Assay Kit (Promega, #V9101), and finally the luminescence chemiluminescence value was read. DMSO was used as the maximum signal value, and adding no enzyme was used as the minimum signal value. The inhibition rate of the compound (%)=(maximum signal value−compound signal value)/(maximum signal value−minimum signal value)×100% was calculated. The compound gradient dilution concentration and the corresponding inhibition rate of the enzyme activity were fit by using XLFit four-parameter method, and IC50 value was calculated.

[2] = target: BTK (C481S) (Homo sapiens (Human), UniProt Q06187, C481S); experiment: BTK C481S enzyme experiment (ADP-Glo kinase assay); format: biochemical; settings: 10 nM BTK C481S, ATP 125 μM, Poly(Glu4, Tyr1), 90 minutes at 20° C.
Description: as §1

Sequence of BTK (C481S) (Q06187 whole entry C481S): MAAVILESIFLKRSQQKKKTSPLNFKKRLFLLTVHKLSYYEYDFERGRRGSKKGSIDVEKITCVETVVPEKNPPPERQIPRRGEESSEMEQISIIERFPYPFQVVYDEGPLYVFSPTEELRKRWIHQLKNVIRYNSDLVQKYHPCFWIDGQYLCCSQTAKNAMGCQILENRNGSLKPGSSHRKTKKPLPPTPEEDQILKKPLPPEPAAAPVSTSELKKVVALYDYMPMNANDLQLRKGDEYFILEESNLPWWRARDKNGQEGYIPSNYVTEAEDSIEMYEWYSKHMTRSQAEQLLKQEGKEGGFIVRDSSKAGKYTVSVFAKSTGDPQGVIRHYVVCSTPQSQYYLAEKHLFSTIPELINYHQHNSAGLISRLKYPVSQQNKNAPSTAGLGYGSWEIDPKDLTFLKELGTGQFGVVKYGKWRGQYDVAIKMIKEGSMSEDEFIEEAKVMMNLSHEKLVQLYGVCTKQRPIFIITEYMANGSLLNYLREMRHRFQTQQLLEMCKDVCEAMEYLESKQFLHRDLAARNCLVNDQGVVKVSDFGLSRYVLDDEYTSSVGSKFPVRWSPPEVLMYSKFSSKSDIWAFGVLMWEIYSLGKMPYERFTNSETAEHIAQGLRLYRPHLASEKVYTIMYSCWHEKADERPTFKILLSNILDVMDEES
Sequence of BTK (Q06187 whole entry): as the sequence (Q06187 whole entry C481S) above, with S481C counted along it

Row | IC50 [1] [nM] | IC50 [2] [nM] | Structure (SMILES)
1 | 18.8 | 9.9 | COC[C@]1(C)Nc2c(cnc3[nH]cc(C(=O)c4ccccc4Cl)c23)N=C1OC [Z200, (S)-(2-chlorophenyl)(3-methoxy-2-(methoxymethyl)-2-methyl-2,7-dihydro-1H-pyrrolo[3′,2′:5,6]pyrido[3,4-b]pyrazin-9-yl)methanone]
2 | 34.8 | 28 | COCC1(C)Nc2c(cnc3[nH]cc(C(=O)c4ccc(Oc5cc(C)ccn5)cc4F)c23)NC1=O (stereo not drawn) [Z69, 9-(2-fluoro-4-((4-methylpyridin-2-yl)oxy)benzoyl)-2-(methoxymethyl)-2-methyl-1,2,4,7-tetrahydro-3H-pyrrolo[3′,2′:5,6]pyrido[3,4-b]pyrazin-3-one]
3 | 122 | 215 | COC[C@]1(C)Nc2c(cnc3[nH]cc(C(=O)c4ccc(Oc5ccccc5)cc4Cl)c23)N=C1SC [Z201, (S)-(2-chloro-4-phenoxyphenyl)(2-(methoxymethyl)-2-methyl-3-(methylthio)-2,7-dihydro-1H-pyrrolo[3′,2′:5,6]pyrido[3,4-b]pyrazin-9-yl)methanone]
4 | 16 | 9.7 | COC[C@]1(C)Nc2c(cnc3[nH]cc(C(=O)c4ccccc4Br)c23)NC1=O [Z86, (S)-9-(2-bromobenzoyl)-2-(methoxymethyl)-2-methyl-1,2,4,7-tetrahydro-3H-pyrrolo[3′,2′:5,6]pyrido[3,4-b]pyrazin-3-one]
5 | 35.9 | 28.5 | N#C[C@H]1CC[C@@]2(C1)Nc1c(cnc3[nH]cc(C(=O)c4ccc(Oc5ccccc5)cc4Cl)c13)NC2=O (single isomer, unassigned) [Z26-4]
6 | 345 | 273 | CN1CCC2(CC1)Nc1c(cnc3[nH]cc(C(=O)c4ccc(Oc5ccccc5)cc4Cl)c13)NC2=O [Z17, 9′-(2-chloro-4-phenoxybenzoyl)-1-methyl-4′,7′-dihydrospiro[piperidine-4,2′-pyrrolo[3′,2′:5,6]pyrido[3,4-b]pyrazin]-3′(1′H)-one]
7 | 19.1 | 21.9 | [2H]C([2H])([2H])OC[C@]1(C)Nc2c(cnc3[nH]cc(C(=O)c4ccc(Oc5ccccc5)cc4Cl)c23)N(C([2H])([2H])[2H])C1=O [Z193, (S)-9-(2-chloro-4-phenoxybenzoyl)-2-((methoxy-d3)methyl)-2-methyl-4-(methyl-d3)-1,2,4,7-tetrahydro-3H-pyrrolo[3′,2′:5,6]pyrido[3,4-b]pyrazin-3-one]
8 | 20.4 | 17.8 | CCOC[C@@]1(C)Nc2c(cnc3[nH]cc(C(=O)c4ccc(Oc5ccccc5)cc4Cl)c23)NC1=O (single isomer, unassigned) [Z67-2]
9 | 29.1 | 31.5 | COC[C@]1(C)Nc2c(cnc3[nH]cc(C(=O)c4ccc(Oc5cc(C)cc(C)n5)cc4Cl)c23)NC1=O [Z127-1, (S)-9-(2-chloro-4-((4,6-dimethylpyridin-2-yl)oxy)benzoyl)-2-(methoxymethyl)-2-methyl-1,2,4,7-tetrahydro-3H-pyrrolo[3′,2′:5,6]pyrido[3,4-b]pyrazin-3-one]
10 | 28.8 | 38.4 | COC[C@]1(C)Nc2c(cnc3[nH]cc(C(=O)c4ncc(Oc5ccccc5)cc4Cl)c23)NC1=O [Z133]
11 | 75.1 | 142 | CCSC1=Nc2cnc3[nH]cc(C(=O)c4ccc(Oc5ccccc5)cc4Cl)c3c2N[C@@]1(C)COC [Z203, (S)-(2-chloro-4-phenoxyphenyl)(3-(ethylthio)-2-(methoxymethyl)-2-methyl-2,7-dihydro-1H-pyrrolo[3′,2′:5,6]pyrido[3,4-b]pyrazin-9-yl)methanone]
12 | 47.3 | 77.4 | COC[C@]1(C)Nc2c(cnc3[nH]cc(C(=O)c4ccc(OC)c(F)c4Cl)c23)NC1=O [Z194, (S)-9-(2-chloro-3-fluoro-4-methoxybenzoyl)-2-(methoxymethyl)-2-methyl-1,2,4,7-tetrahydro-3H-pyrrolo[3′,2′:5,6]pyrido[3,4-b]pyrazin-3-one]
13 | 15.2 | 18.5 | COC[C@]1(C)Nc2c(cnc3[nH]cc(C(=O)c4cc(F)ccc4Cl)c23)NC1=O [Z85, (S)-9-(2-chloro-5-fluorobenzoyl)-2-(methoxymethyl)-2-methyl-1,2,4,7-tetrahydro-3H-pyrrolo[3′,2′:5,6]pyrido[3,4-b]pyrazin-3-one]
14 | 42.6 | 23.2 | COC[C@]1(C)Nc2c(cnc3[nH]cc(C(=O)c4ccccc4Cl)c23)N=C1SC [Z199, (S)-(2-chlorophenyl)(2-(methoxymethyl)-2-methyl-3-(methylthio)-2,7-dihydro-1H-pyrrolo[3′,2′:5,6]pyrido[3,4-b]pyrazin-9-yl)methanone]
15 | 5.8 | 3.2 | COC[C@]1(C)Nc2c(cnc3[nH]cc(C(=O)c4ccccc4Cl)c23)NC1=O [Z79, (S)-9-(2-chlorobenzoyl)-2-(methoxymethyl)-2-methyl-1,2,4,7-tetrahydro-3H-pyrrolo[3′,2′:5,6]pyrido[3,4-b]pyrazin-3-one]
16 | 17.4 | 15.1 | CC1(C)COc2cnc3[nH]cc(C(=O)c4ccccc4Cl)c3c2N1 [Z198, (2-chlorophenyl)(2,2-dimethyl-1,2,3,7-tetrahydropyrrolo[3′,2′:5,6]pyrido[3,4-b][1,4]oxazin-9-yl)methanone]
17 | 61.8 | 61.1 | COC[C@]1(C)Nc2c(cnc3[nH]cc(C(=O)c4ccc(OC)cc4Cl)c23)NC1=O [Z113, (S)-9-(2-chloro-4-methoxybenzoyl)-2-(methoxymethyl)-2-methyl-1,2,4,7-tetrahydro-3H-pyrrolo[3′,2′:5,6]pyrido[3,4-b]pyrazin-3-one]
18 | 185 | 129 | CN(C)CCN1C(=O)C(C)(C)Nc2c1cnc1[nH]cc(C(=O)c3ccc(Oc4ccccc4)cc3Cl)c21 [Z63]
19 | 64.1 | 70.5 | COC[C@]1(C)Nc2c(cnc3[nH]cc(C(=O)c4ccc(OC5CCCC5)cc4Cl)c23)NC1=O [Z122, (S)-9-(2-chloro-4-(cyclopentyloxy)benzoyl)-2-(methoxymethyl)-2-methyl-1,2,4,7-tetrahydro-3H-pyrrolo[3′,2′:5,6]pyrido[3,4-b]pyrazin-3-one]
20 | 34.3 | 60.8 | COCC1(C)Nc2c(cnc3[nH]cc(C(=O)c4ccc(Oc5cc(C6CC6)ccn5)cc4Cl)c23)NC1=O (single isomer, unassigned) [Z73-2, 9-(2-chloro-4-((4-cyclopropylpyridin-2-yl)oxy)benzoyl)-2-(methoxymethyl)-2-methyl-4,7-dihydro-1H-pyrrolo[3′,2′:5,6]pyrido[3,4-b]pyrazin-3(2H)-one]
21 | 27.1 | 7.2 | CN1C(=O)C2(CCOCC2)Nc2c1cnc1[nH]cc(C(=O)c3ccc(Oc4ccccc4)cc3Cl)c21 [Z22, 9′-(2-chloro-4-phenoxybenzoyl)-4′-methyl-2,3,4′,5,6,7′-hexahydrospiro[pyran-4,2′-pyrrolo[3′,2′:5,6]pyrido[3,4-b]pyrazin]-3′(1′H)-one]
22 | 16.3 | 20.1 | [2H]C([2H])([2H])N1C(=O)[C@](C)(COC)Nc2c1cnc1[nH]cc(C(=O)c3ccc(Oc4ccccc4)cc3Cl)c21 [Z190, (S)-9-(2-chloro-4-phenoxybenzoyl)-2-(methoxymethyl)-2-methyl-4-(methyl-d3)-1,2,4,7-tetrahydro-3H-pyrrolo[3′,2′:5,6]pyrido[3,4-b]pyrazin-3-one]
23 | 17.5 | 28.3 | COCC1(C)Nc2c(cnc3[nH]cc(C(=O)c4ccc(Oc5cc(C)ccn5)cc4F)c23)NC1=O (single isomer, unassigned) [Z69-2, 9-(2-fluoro-4-((4-methylpyridin-2-yl)oxy)benzoyl)-2-(methoxymethyl)-2-methyl-1,2,4,7-tetrahydro-3H-pyrrolo[3′,2′:5,6]pyrido[3,4-b]pyrazin-3-one]
24 | 20.1 | 9.8 | COC[C@]1(C)Nc2c(cnc3[nH]cc(C(=O)c4sccc4Cl)c23)NC1=O [Z103, (S)-9-(3-chlorothiophene-2-carbonyl)-2-(methoxymethyl)-2-methyl-1,2,4,7-tetrahydro-3H-pyrrolo[3′,2′:5,6]pyrido[3,4-b]pyrazin-3-one]
25 | 58.9 | 88.8 | COC[C@]1(C)Nc2c(cnc3[nH]cc(C(=O)c4ccc(Oc5cc(C)nc(Cl)c5)cc4Cl)c23)NC1=O [Z135, (S)-9-(2-chloro-4-((2-chloro-6-methylpyridin-4-yl)oxy)benzoyl)-2-(methoxymethyl)-2-methyl-1,2,4,7-tetrahydro-3H-pyrrolo[3′,2′:5,6]pyrido[3,4-b]pyrazin-3-one]
26 | 26.4 | 25.8 | COC[C@]1(C)Nc2c(cnc3[nH]cc(C(=O)c4c(F)cccc4Cl)c23)NC1=O [Z196, (S)-9-(2-chloro-6-fluorobenzoyl)-2-(methoxymethyl)-2-methyl-1,2,4,7-tetrahydro-3H-pyrrolo[3′,2′:5,6]pyrido[3,4-b]pyrazin-3-one]
27 | 13.9 | 21.2 | COCC1(C)Nc2c(cnc3[nH]cc(C(=O)c4ccc(Oc5cc(C)ccn5)cc4F)c23)NC1=O (single isomer, unassigned) [Z69-1, 9-(2-fluoro-4-((4-methylpyridin-2-yl)oxy)benzoyl)-2-(methoxymethyl)-2-methyl-1,2,4,7-tetrahydro-3H-pyrrolo[3′,2′:5,6]pyrido[3,4-b]pyrazin-3-one]
